Source: patent publication US20030004201A1, “Medicament” (SmithKline Beecham p.l.c., priority 1990, published 2003)
Where a name gives a salt, the structure may show the parent alone.

| melting point [°C] | Compound |
| --- | --- |
| 254 to 255 | CCCCc1nc2cc(Br)cc(C(=O)O)c2n1Cc1ccccc1Cl [Example 4, 5-Bromo-2-n-butyl-1-(2-chlorophenyl)methyl-1H-benzimidazole-7-carboxylic Acid] |
| 118 to 120 | CCCCc1ncc(CC(Cc2ccccc2)C(=O)O)n1Cc1ccccc1Cl (stereo not drawn) (as salt: hydrochloride) [Example 2, 3-[2-n-Butyl-1-{(2-chlorophenyl)methyl}-1H-imidazol-5-yl]-2-benzylpropanoic Acid] |
| 178 to 181 | CCCSc1ncc(C[C@H](NC(=O)CCC)C(=O)O)n1Cc1ccccc1Cl [Example 1, 3-[(2-Chlorophenyl)methyl]-2-propylthio-N-butyrylhistidine] |
